Laboratory results as given in patent US20250034154A1, “SALTS AND SOLID FORMS OF A COMPOUND THAT MODULATES IRAK4” (Gilead Sciences, Inc., priority 2023, published 2025).

Assay: Dynamic vapor sorption (DVS) hygroscopicity
Format: physicochemical
Description: Hygroscopicity was studied using dynamic vapor sorption (DVS, TA Q5000 SA, TA Instruments, New Castle, DE or DVS, DVS Intrinsic, Surface Measurement Systems, London, UK). A sample (2-20 mg) was placed in an aluminum DVS pan and loaded on the sample side of the twin pan balance. The water sorption and desorption were studied as a function of relative humidity (RH) at 25° C. In 10% RH increments, the relative humidity was increased from 5% RH to 95% RH and then decreased back to 5%. […] Data analysis was performed using Universal Analysis 2000 Version 4.7A (TA Instruments, New Castle, DE) for TA DVS runs and Microsoft Excel for SMS DVS runs.

## C[C@H](C#N)Nc1cc(-c2ccc3cc(C#N)cnn23)ncc1C(=O)NC[C@@H](F)C(C)(C)O [Form IV, 4-(((R)-1-cyanoethyl)amino)-6-(3-cyanopyrrolo[1,2-b]pyridazin-7-yl)-N—((R)-2-fluoro-3-hydroxy-3-methylbutyl)nicotinamide]
25° C. and 95% RH
  water absorbed (DVS analysis): less than 0.1 wt %
25° C., up to 95% RH
  hygroscopicity (DVS analysis): non-hygroscopic
Post DVS
  form change by XRPD analysis of the sample post DVS analysis: no form change
